Earlier results, collected in patent US20090142428A1, “Extracts from the Bark of Corynanthe Species and Use Thereof as Well as Medicaments, Dietetic Food Products and Pharmaceutical Preparations Containing Said Extracts” (DR. WILLMAR SCHWABE GMBH & CO. KG, priority 2005, published 2009).

System: 5-α-reductase
Conditions: uptake of finasteride

Which results are given for CC(C)(C)NC(=O)[C@H]1CC[C@H]2[C@@H]3CC[C@H]4NC(=O)C=C[C@]4(C)[C@H]3CC[C@]12C [finasteride]?
reduction of the prostatic DHT concentration: up to 85%; average reduction of the prostate size (period of up to 12 months): about 20%
